Measurements: patent US11564914B2, “Methods of treating bone loss” (THE REGENTS OF THE UNIVERSITY OF CALIFORNIA, priority 2016, dated 2023)

Legend:
[1] = blood concentration of TPPU by LC-MS; type: in vivo; conditions: mouse, whole blood; mice, 24 h after last oral administration, after 15 days at 1 mg/kg/day
Experimental: The samples were taken at 24 h after the last oral gavage treatment. […] The results are expressed as mean±SD from six mice per group.
Animals orally received 1×10^9 CFU/ml of a diluted culture of freshly grown A. actinomycetemcomitans JP2, in a volume of 100 μl PBS containing 2% carboxymethylcellulose. The solution was placed into the oral cavity with a micropipette, and the procedure was repeated at 48 and 96 h after the first inoculation. Treatment with TPPU and EETs was initiated after the third inoculation of bacteria. The inhibitor was dissolved in PEG400 and administered at 1 mg/kg/day by oral gavage. For the treatment with EETs, we attempted to apply viscous solution of mixture of EET-methyl ester regioisomers dissolved in PEG400 to the gum tissue using a fine pipette at a dose of 1 μg/kg/day. The mice received the entire EET dose. This was done immediately before the oral gavage with both groups of mice receiving TPPU or mice receiving vehicle alone. Because EETs are unstable in stomach acid we assume exposure is largely topical or buccal. All treatments continued for 15 days. […] The negative control group consisted of uninfected mice (sham-infected), the positive control group was infected and received the vehicle only. One day after the treatment period (16th day), animals were sacrificed by cardiac puncture after anesthesia with xylazine/ketamine. […]

sEH = molecular target: T1, sEH (Homo sapiens, UniProt P34913); assay: testing as sEH inhibitors (method not given); type: biochemical
T1 sequence (P34913 1-555): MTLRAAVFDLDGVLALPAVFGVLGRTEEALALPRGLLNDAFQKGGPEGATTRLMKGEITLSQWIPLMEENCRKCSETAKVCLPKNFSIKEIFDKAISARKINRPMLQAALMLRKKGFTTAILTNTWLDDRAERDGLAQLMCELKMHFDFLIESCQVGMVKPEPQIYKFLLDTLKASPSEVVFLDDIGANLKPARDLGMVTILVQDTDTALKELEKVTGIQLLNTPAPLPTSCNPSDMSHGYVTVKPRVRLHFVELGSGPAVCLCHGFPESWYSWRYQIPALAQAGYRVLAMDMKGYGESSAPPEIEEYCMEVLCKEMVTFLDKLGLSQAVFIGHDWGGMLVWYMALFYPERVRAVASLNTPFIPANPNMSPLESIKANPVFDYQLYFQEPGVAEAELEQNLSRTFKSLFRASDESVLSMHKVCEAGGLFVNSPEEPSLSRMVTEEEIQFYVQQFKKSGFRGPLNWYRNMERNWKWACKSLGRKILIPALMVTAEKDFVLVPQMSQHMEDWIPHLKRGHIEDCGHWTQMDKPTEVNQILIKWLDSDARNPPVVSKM

[2] = metabolic stability (method not given)

concentration at 24 h [1]	activity as inhibitor of sEH (sEH)	metabolic stability [2]	SMILES
> 8000 ng/mL	–	–	CCC(=O)N1CCC(NC(=O)Nc2ccc(OC(F)(F)F)cc2)CC1 [TPPU, 1-trifluoromethoxyphenyl-3-(1-propionylpiperidin-4-yl) urea]
–	particularly high activity	metabolically stable	CCCCCCCCCCCCNC(=O)NC12CC3CC(CC(C3)C1)C2 [ADU, N-Adamantyl-N′-dodecyl urea]
